Test results taken from ChEMBL document CHEMBL5360657, “Discovery of the TLR7/8 Antagonist MHV370 for Treatment of Systemic Autoimmune Diseases” (ACS Med Chem Lett, 2023).

Tests used:
Toll-like receptor 8 = target: T1, Toll-like receptor 8 (Homo sapiens, UniProt Q9NR97); experiment: Antagonist activity at TLR8 in human PBMC cells […] assessed as reduction in IL-6 level measured after 20 hrs by AlphaLISA assay; type: cell-based
T1 sequence (Q9NR97 whole entry): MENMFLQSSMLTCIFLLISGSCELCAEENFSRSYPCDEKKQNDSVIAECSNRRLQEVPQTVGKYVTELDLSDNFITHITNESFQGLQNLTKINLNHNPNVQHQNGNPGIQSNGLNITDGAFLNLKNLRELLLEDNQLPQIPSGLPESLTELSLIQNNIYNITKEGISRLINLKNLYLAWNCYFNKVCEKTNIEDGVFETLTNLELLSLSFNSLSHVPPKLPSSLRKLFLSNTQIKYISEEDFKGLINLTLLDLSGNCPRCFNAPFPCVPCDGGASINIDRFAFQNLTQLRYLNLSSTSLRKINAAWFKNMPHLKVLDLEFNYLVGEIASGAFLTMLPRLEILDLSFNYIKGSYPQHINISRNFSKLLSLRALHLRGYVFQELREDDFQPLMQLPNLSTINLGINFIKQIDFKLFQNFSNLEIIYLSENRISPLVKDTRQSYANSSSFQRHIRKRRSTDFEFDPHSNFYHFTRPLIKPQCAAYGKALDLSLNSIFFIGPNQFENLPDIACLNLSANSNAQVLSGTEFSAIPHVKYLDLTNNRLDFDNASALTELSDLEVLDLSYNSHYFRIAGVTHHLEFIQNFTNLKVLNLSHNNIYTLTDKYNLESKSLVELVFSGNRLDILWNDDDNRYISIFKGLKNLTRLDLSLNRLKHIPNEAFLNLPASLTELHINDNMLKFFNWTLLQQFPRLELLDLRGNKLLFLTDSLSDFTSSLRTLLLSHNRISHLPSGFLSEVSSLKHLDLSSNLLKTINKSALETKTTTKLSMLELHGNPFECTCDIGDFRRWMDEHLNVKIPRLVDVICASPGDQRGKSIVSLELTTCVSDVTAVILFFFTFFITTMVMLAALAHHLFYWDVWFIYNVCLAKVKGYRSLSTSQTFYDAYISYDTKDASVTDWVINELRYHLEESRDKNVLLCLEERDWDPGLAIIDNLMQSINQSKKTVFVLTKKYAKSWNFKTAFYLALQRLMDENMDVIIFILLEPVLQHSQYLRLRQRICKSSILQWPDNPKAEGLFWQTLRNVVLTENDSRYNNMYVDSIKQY

Toll-like receptor 9 = target: T2, Toll-like receptor 9 (Homo sapiens, UniProt Q9NR96); experiment: Antagonist activity at TLR9 in human PBMC cells assessed as reduction in IFN alpha measured after 20 hrs by AlphaLISA assay; type: cell-based
T2 sequence (Q9NR96 whole entry): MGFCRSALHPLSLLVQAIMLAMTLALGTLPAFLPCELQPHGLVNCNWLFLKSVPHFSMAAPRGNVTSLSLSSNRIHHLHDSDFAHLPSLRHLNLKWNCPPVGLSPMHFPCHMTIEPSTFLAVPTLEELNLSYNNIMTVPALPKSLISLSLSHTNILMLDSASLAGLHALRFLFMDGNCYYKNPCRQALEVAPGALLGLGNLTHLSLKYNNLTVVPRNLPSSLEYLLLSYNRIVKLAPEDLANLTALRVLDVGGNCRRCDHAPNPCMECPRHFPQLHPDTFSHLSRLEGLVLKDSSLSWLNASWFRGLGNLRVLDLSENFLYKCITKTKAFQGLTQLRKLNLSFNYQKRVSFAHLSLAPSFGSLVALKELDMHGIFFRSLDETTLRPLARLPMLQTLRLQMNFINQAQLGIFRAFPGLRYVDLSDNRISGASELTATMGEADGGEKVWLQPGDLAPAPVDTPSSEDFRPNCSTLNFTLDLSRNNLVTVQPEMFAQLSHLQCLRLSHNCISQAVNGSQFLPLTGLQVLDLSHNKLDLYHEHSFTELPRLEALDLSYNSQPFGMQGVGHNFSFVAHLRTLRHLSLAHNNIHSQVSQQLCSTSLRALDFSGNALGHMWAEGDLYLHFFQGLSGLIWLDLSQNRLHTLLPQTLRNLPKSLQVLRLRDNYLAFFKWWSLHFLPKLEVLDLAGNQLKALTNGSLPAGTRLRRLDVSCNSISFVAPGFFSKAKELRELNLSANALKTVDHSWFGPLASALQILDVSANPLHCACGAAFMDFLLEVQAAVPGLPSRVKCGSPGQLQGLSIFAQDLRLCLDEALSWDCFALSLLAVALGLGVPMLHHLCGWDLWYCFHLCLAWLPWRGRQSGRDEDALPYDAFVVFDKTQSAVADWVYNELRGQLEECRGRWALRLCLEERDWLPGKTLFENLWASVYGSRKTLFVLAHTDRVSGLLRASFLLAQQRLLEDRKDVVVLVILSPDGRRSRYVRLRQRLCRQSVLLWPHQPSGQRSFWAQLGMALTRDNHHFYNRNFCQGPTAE

[1] = Permeability of the compound by PAMPA; type: ADME
[2] = target: Voltage-gated inwardly rectifying potassium channel KCNH2 (Homo sapiens, UniProt Q12809); experiment: Displacement of [3H]-dofetilite from human ERG (unknown origin); type: toxicity
Cytochrome P450 3A4 [3] = target: T3, Cytochrome P450 3A4 (Homo sapiens, UniProt P08684); experiment: Inhibition of CYP3A4 (unknown origin); type: ADME
Cytochrome P450 3A4 [4] = target: T3, Cytochrome P450 3A4; experiment: Time dependent inhibition of CYP3A4 (unknown origin) assessed as Kobs; type: ADME
[5] = Metabolic stability in human liver microsomes assessed as intrinsic clearance; type: ADME, Microsome; conditions: read-out: CLH
[6] = Metabolic stability in mouse liver microsomes assessed as intrinsic clearance; type: ADME, Microsome; conditions: read-out: CLH
[7] = Metabolic stability in rat liver microsomes assessed as intrinsic clearance; type: ADME, Microsome; conditions: read-out: CLH
[8] = MRT in mouse at 1 mg/ml, po or iv; type: ADME, organism-based; conditions: in vivo
[9] = Volume of distribution at steady state in rat at 1 mg/ml, po or iv; type: ADME, organism-based; conditions: in vivo
[10] = AUC in rat at 1 mg/ml, iv; type: ADME; set-up: dose 1 mg/ml, route iv; conditions: in vivo

T3 sequence (P08684 whole entry): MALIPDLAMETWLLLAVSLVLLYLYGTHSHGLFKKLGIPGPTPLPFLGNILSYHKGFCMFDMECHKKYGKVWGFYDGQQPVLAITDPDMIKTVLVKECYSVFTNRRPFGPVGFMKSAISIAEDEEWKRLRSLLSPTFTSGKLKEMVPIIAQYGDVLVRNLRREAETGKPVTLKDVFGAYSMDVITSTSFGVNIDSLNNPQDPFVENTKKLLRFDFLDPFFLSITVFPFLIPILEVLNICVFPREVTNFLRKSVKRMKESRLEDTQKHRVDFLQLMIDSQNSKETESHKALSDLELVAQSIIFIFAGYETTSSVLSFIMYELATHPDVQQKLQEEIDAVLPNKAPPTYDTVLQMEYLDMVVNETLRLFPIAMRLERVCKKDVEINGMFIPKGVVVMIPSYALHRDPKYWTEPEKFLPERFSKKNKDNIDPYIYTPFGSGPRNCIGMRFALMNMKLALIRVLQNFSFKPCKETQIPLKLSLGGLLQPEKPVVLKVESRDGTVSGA
Sequence of Voltage-gated inwardly rectifying potassium channel KCNH2 (Q12809 whole entry): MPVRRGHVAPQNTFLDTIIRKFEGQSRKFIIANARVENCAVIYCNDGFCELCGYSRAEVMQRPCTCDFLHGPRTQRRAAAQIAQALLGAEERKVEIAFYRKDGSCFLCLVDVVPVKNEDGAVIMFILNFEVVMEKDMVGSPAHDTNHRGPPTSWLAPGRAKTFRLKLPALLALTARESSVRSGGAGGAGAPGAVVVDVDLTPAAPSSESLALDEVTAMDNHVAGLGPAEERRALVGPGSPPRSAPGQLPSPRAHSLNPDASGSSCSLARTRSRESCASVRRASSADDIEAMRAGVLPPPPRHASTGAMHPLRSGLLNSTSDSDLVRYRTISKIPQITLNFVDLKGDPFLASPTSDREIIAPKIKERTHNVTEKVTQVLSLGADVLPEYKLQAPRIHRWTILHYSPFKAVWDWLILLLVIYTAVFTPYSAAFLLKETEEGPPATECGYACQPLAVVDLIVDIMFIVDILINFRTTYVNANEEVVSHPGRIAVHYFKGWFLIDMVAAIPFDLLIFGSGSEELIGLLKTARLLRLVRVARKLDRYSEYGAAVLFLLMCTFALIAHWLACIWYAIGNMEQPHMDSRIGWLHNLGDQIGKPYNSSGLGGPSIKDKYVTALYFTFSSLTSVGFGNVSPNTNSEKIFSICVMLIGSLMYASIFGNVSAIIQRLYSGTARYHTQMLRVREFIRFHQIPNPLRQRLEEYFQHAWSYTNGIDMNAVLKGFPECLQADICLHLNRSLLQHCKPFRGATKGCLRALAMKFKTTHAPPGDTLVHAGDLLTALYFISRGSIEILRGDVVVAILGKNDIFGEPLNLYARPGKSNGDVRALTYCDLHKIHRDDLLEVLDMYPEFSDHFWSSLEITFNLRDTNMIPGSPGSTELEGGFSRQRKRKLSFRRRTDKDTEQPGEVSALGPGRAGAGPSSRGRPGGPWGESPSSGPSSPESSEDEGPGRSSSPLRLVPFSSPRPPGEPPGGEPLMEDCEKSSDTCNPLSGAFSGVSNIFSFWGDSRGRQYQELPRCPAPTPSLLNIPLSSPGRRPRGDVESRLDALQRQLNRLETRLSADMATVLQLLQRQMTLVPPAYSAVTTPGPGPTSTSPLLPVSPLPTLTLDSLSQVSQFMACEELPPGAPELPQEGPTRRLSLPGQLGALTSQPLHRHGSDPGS

IC50 (Toll-like receptor 8) [µM] | IC50 (Toll-like receptor 9) [µM] | log(permeability) [1] | IC50 (Cytochrome P450 3A4 [3]) [µM] | Kobs (Cytochrome P450 3A4 [4]) [min⁻¹] | microsomal CLint [5] [µL/min/mg] | microsomal CLint [6] [µL/min/mg] | microsomal CLint [7] [µL/min/mg] | Compound | IC50 [2] [µM] | MRT [8] [h] | Vdss [9] [L/kg] | AUC [10] [nM·h]
0.21 | 0.58 | -5.1 | > 50 | 0.002 | 19 | 15 | 36 | Cc1cc(N2CCc3c(c(C)nn3CC34CCC(N)(CC3)CC4)C2)c2cnn(C)c2n1 | 29 |  |  | 
0.044 | 0.81 | -5.3 | > 50 | 0.01 | 35 | 96 | < 15 | CCNCC(=O)NC12CCC(Cn3nc(C)c4c3CCN(c3cc(C)nc5c3cnn5C)C4)(CC1)CC2 | > 30 | 2.4 | 3 | 1780

Compound | IC50 (Toll-like receptor 8) [µM] | IC50 (Toll-like receptor 9) [µM] | log(permeability) [1] | IC50 (Cytochrome P450 3A4 [3]) [µM] | Kobs (Cytochrome P450 3A4 [4]) [min⁻¹] | microsomal CLint [5] [µL/min/mg] | microsomal CLint [6] [µL/min/mg] | microsomal CLint [7] [µL/min/mg] | IC50 [2] [µM] | MRT [8] [h] | Vdss [9] [L/kg] | AUC [10] [nM·h]
Cc1cc(N2CCc3c(c(C)nn3CC34CCC(NC(=O)[C@@H]5COCCN5)(CC3)CC4)C2)c2cnn(C)c2n1 [MHV-370] | 0.068 | 1 | -5.2 | > 50 | 0.006 | 19 | 52 | 17 | > 30 | 1 | 1.3 | 1780
